Reference: ChEMBL document CHEMBL5331067, “Disubstituted pyrimidine-5-carboxamide derivatives as novel HIV-1 NNRTIs: Crystallographic overlay-based molecular design, synthesis, and biological evaluation” (Eur J Med Chem, 2023)

Columns and labels:
[1] = system: Human immunodeficiency virus 1; test: Antiviral activity against NNRTI-resistant HIV-1 harboring E138K mutant infected in human MT4 cells assessed as virus-induced cytopathicity incubated for 5 days by MTT assay; format: functional, organism-based; details: Human immunodeficiency virus 1, MT4, 120 h
[2] = system: Human immunodeficiency virus 1; test: Antiviral activity against NNRTI-resistant HIV-1 harboring Y181C mutant infected in human MT4 cells assessed as virus-induced cytopathicity incubated for 5 days by MTT assay; format: functional, organism-based; details: Human immunodeficiency virus 1, MT4, 120 h
[3] = system: Human immunodeficiency virus 1; test: Antiviral activity against HIV-1 RES056 infected in human MT4 cells assessed as reduction in virus induced cytopathic effect incubated for 5 days by MTT assay; format: functional, organism-based; details: Human immunodeficiency virus 1, RES056, MT4, 120 h
[4] = Fold resistance, ratio of EC50 for antiviral activity against NNRTI-resistant HIV-1 harboring Y181C mutant infected in human MT4 cells assessed as virus-induced cytopathicity to EC50 for antiviral activity against HIV-1 IIIB infected in human MT4 cells assessed as reduction in virus induced cytopathic effect; format: functional
[5] = target: Human immunodeficiency virus type 1 reverse transcriptase (Human immunodeficiency virus 1, UniProt Q72547); test: Inhibition of wild type HIV-1 reverse transcriptase assessed as reduction of biotin-dUTP incorporation into […] using ABTS as substrate incubated for 1 hrs by ELISA analysis
[6] = system: Human immunodeficiency virus 1; test: Antiviral activity against NNRTI-resistant HIV-1 harboring K103N mutant infected in human MT4 cells assessed as virus-induced cytopathicity incubated for 5 days by MTT assay; format: functional, organism-based; details: Human immunodeficiency virus 1, MT4, 120 h
[7] = Fold resistance, ratio of EC50 for antiviral activity against NNRTI-resistant HIV-1 harboring E138K mutant infected in human MT4 cells assessed as virus-induced cytopathicity to EC50 for antiviral activity against HIV-1 IIIB infected in human MT4 cells assessed as reduction in virus induced cytopathic effect; format: functional
[8] = system: Human immunodeficiency virus 1; test: Antiviral activity against HIV-1 IIIB infected in human MT4 cells assessed as reduction in virus induced cytopathic effect incubated for 5 days by MTT assay; format: functional, organism-based; details: Human immunodeficiency virus 1, IIIB, MT4, 120 h
[9] = Fold resistance, ratio of EC50 for antiviral activity against NNRTI-resistant HIV-1 harboring F227L/V106A double mutant infected in human MT4 cells assessed as virus-induced cytopathicity to EC50 for antiviral activity against HIV-1 RES056 infected in human MT4 cells assessed as reduction in virus induced cytopathic effect; format: functional
[10] = system: Human immunodeficiency virus 1; test: Antiviral activity against NNRTI-resistant HIV-1 harboring F227L/V106A double mutant infected in human MT4 cells assessed as virus-induced cytopathicity incubated for 5 days by MTT assay; format: functional, organism-based; details: Human immunodeficiency virus 1, MT4, 120 h
[11] = system: Human immunodeficiency virus 1; test: Antiviral activity against NNRTI-resistant HIV-1 harboring L100I mutant infected in human MT4 cells assessed as virus-induced cytopathicity incubated for 5 days by MTT assay; format: functional, organism-based; details: Human immunodeficiency virus 1, MT4, 120 h
[12] = Fold resistance, ratio of EC50 for antiviral activity against NNRTI-resistant HIV-1 harboring K103N mutant infected in human MT4 cells assessed as virus-induced cytopathicity to EC50 for antiviral activity against HIV-1 IIIB infected in human MT4 cells assessed as reduction in virus induced cytopathic effect; format: functional
[13] = Selectivity index, ratio of CC50 for cytotoxicity against human MT4 cells assessed as reduction in cell viability to EC50 for antiviral activity against NNRTI-resistant HIV-1 harboring Y188L mutant infected in human MT4 cells; format: toxicity, cell-based; details: read-out: Ratio CC50/EC50
[14] = Selectivity index, ratio of CC50 for cytotoxicity against human MT4 cells assessed as reduction in cell viability to EC50 for antiviral activity against NNRTI-resistant HIV-1 harboring Y181C mutant infected in human MT4 cells; format: toxicity, cell-based; details: read-out: Ratio CC50/EC50
[15] = Selectivity index, ratio of CC50 for cytotoxicity against human MT4 cells assessed as reduction in cell viability to EC50 for antiviral activity against NNRTI-resistant HIV-1 harboring E138K mutant infected in human MT4 cells; format: toxicity, cell-based; details: read-out: Ratio CC50/EC50
[16] = Selectivity index, ratio of CC50 for cytotoxicity against human MT4 cells assessed as reduction in cell viability to EC50 for antiviral activity against NNRTI-resistant HIV-1 harboring K103N mutant infected in human MT4 cells; format: toxicity, cell-based; details: read-out: Ratio CC50/EC50
[17] = system: Human immunodeficiency virus 1; test: Antiviral activity against NNRTI-resistant HIV-1 harboring Y188L mutant infected in human MT4 cells assessed as virus-induced cytopathicity incubated for 5 days by MTT assay; format: functional, organism-based; details: Human immunodeficiency virus 1, MT4, 120 h
[18] = Fold resistance, ratio of EC50 for antiviral activity against NNRTI-resistant HIV-1 harboring Y188L mutant infected in human MT4 cells assessed as virus-induced cytopathicity to EC50 for antiviral activity against HIV-1 IIIB infected in human MT4 cells assessed as reduction in virus induced cytopathic effect; format: functional
[19] = Selectivity index, ratio of CC50 for cytotoxicity against human MT4 cells assessed as reduction in cell viability to EC50 for antiviral activity against HIV-1 RES056 infected in human MT4 cells assessed as reduction in virus induced cytopathic effect; format: toxicity, cell-based; details: read-out: Ratio CC50/EC50
[20] = Selectivity index, ratio of CC50 for cytotoxicity against human MT4 cells assessed as reduction in cell viability to EC50 for antiviral activity against NNRTI-resistant HIV-1 harboring L100I mutant infected in human MT4 cells; format: toxicity, cell-based; details: read-out: Ratio CC50/EC50
[21] = Cytotoxicity against human MT4 cells assessed as cell growth inhibition incubated for 5 days by MTT assay; format: toxicity, cell-based; details: time 5 day
[22] = Fold resistance, ratio of EC50 for antiviral activity against NNRTI-resistant HIV-1 harboring L100I mutant infected in human MT4 cells assessed as virus-induced cytopathicity to EC50 for antiviral activity against HIV-1 IIIB infected in human MT4 cells assessed as reduction in virus induced cytopathic effect; format: functional
[23] = Selectivity index, ratio of CC50 for cytotoxicity against human MT4 cells assessed as reduction in cell viability to EC50 for antiviral activity against NNRTI-resistant HIV-1 harboring F227L/V106A double mutant infected in human MT4 cells; format: toxicity, cell-based; details: read-out: Ratio CC50/EC50
[24] = Selectivity index, ratio of CC50 for cytotoxicity against human MT4 cells assessed as reduction in cell viability to EC50 for antiviral activity against HIV-1 IIIB infected in human MT4 cells assessed as reduction in virus induced cytopathic effect; format: toxicity, cell-based; details: read-out: Ratio CC50/EC50
[25] = Fold resistance, ratio of EC50 for antiviral activity against NNRTI-resistant HIV-1 harboring F227L/V106A double mutant infected in human MT4 cells assessed as virus-induced cytopathicity to EC50 for antiviral activity against HIV-1 IIIB infected in human MT4 cells assessed as reduction in virus induced cytopathic effect; format: functional

SMILES | EC50 [1] [nM] | EC50 [2] [nM] | EC50 [3] [nM] | Ratio EC50 [4] | IC50 [5] [nM] | EC50 [6] [nM] | Ratio EC50 [7] | EC50 [8] [nM] | Ratio EC50 [9] | EC50 [10] [nM] | EC50 [11] [nM] | Ratio EC50 [12] | selectivity ratio [13] | selectivity ratio [14] | selectivity ratio [15] | selectivity ratio [16] | EC50 [17] [nM] | Ratio EC50 [18] | selectivity ratio [19] | selectivity ratio [20] | further results
Cc1cc(C#N)cc(C)c1Oc1nc(Nc2ccc(C#N)c(F)c2)ncc1C(N)=O | 51 | 180 | 7190 | 16.6 | 170 | 20 | 4.7 | 11 | 663.7 | 3110 | 50 | 1.8 | 345 | 194 | 681 | 1770 | 101 | 9.4 | 5 | 698 | CC50 at 120 h [21]: 34900 nM; Ratio EC50 [22]: 4.6; selectivity ratio [23]: 11; selectivity ratio [24]: 3230; Ratio EC50 [25]: 287.6
Cc1cc(C#N)cc(C)c1Oc1nc(Nc2ccc(C#N)cc2)ncc1C(N)=O | 70 | 395 | 8960 | 34.6 | 196 | 50 | 6.2 | 11 | 785.5 | 2550 | 168 | 4.3 | 167 | 82 | 459 | 650 | 193 | 16.9 | 4 | 192 | CC50 at 120 h [21]: 32200 nM; Ratio EC50 [22]: 14.7; selectivity ratio [23]: 13; selectivity ratio [24]: 2820; Ratio EC50 [25]: 223.3
